According to patent US20170354152A1, “PESTICIDAL COMPOSITION AND METHOD FOR CONTROLLING PESTS” (priority 2015, published 2017):

Experiments:
Assay type in all cases: in vivo
[1] = system: southern root-knot nematode (Meloidogyne incognita); assay: Example 3: cup test, contaminated soil mixed with test agents, cucumber seeds, control value from root knot index; conditions: compound alone, 26th day after seeding, =100−the root knot index
Description: Soil contaminated with southern root-knot nematode (Meloidogyne incognita) was put in a 200 ml polypropylene cup, and predetermined amounts of test agents were added and mixed. Immediately after the addition of the test agents, the mixture was thoroughly mixed and then seeded with three seeds of cucumber. On the 26th day after seeding, the root knot index (0 to 100%) formed by nematode was visually determined.
As the test results, from the root knot index based on the root knot index in the non-treated area being 100, the control value (=100−the root knot index) was calculated, and the results are shown in Tables 3 and 4. Further, a theoretical value obtained by the Colby's formula (=Control value of compound A+Control value of compound B−((Control value of compound A×Control value of compound B)/100)) is also shown in brackets ( ) in Tables 3 and 4.

[2] = system: southern root-knot nematode (Meloidogyne incognita); assay: Example 2: pot test, contaminated soil mixed with test agents, tomato seedlings, root knot index; conditions: compound alone, 35th day after transplantation, non-treated area being 100
Description: 1 Liter of sand soil obtained by mixing paddy steam sterilization soil, sand soil and soil contaminated with southern root-knot nematode (Meloidogyne incognita) in a volume ratio of 2:2:1, was put into a 1/1,000,000 ha pot, and predetermined amounts of test agents were added and mixed, Immediately after addition of the test agents, the mixture was sufficiently mixed, and then, seedlings of tomato (cultivar: kyoryoku bei ju) were transplanted. On the 35th day after transplantation, the root knot index (0 to 100%) formed by nematode was visually determined. The test was carried out by two replications.
Further, a theoretical value determined by the Colby's formula is shown in brackets ( ) in Table 2.

[3] = system: southern root-knot nematode (Meloidogyne incognita); assay: Test Example 1: immersion of second stage juveniles in chemical solution, mobility inhibition; conditions: compound alone, 24 hours, 25° C.
Description: About 50 larvae at second stage juveniles of southern root-knot nematode (Meloidogyne incognita) were immersed in a chemical solution diluted to a predetermined concentration with distilled water and kept for 24 hours in a constant temperature room at 25° C. […] From these values, the mobility inhibition rate was determined by the following formula.
Mobility inhibition rate (%)=[1-{(1-B/A)/(1-B′/A′)}]×100
Further, a theoretical value (%) of the mobility inhibition rate was calculated by the Colby's formula and is also shown in brackets ( ) in Table 1. The measured value (%) of the mobility inhibition rate is higher than the theoretical value (%), and thus, the composition of the present invention has a synergistic effect for controlling nematode.

`CCOP(=O)(SC(C)CC)N1CCSC1=O` (stereo not drawn) [Fosthiazate, fosthiazate] gave a Control value ([1]; 125 g/ha) of 70.0, a Control value ([1]; 188 g/ha) of 73.3 and a Control value ([1]; 250 g/ha) of 83.3. The Control value ([1]; 375 g/ha) was 90.0, the Control value ([1]; 500 g/ha) was 90.0 and the “Average root knot index” value ([2]; 3000 g/ha) was 11.4. The inhibition at 0.31 ppm ([3]; Meloidogyne incognita, 0.31 ppm, read-out: Mobility inhibition rate (%)) was 0.2%, the inhibition at 0.63 ppm ([3]; Meloidogyne incognita, 0.63 ppm, read-out: Mobility inhibition rate (%)) was 15% and the inhibition at 1.25 ppm ([3]; Meloidogyne incognita, 1.25 ppm, read-out: Mobility inhibition rate (%)) was 22.7%. It also gave an inhibition at 2.5 ppm ([3]; Meloidogyne incognita, 2.5 ppm, read-out: Mobility inhibition rate (%)) of 55.7% and an inhibition at 5 ppm ([3]; Meloidogyne incognita, 5 ppm, read-out: Mobility inhibition rate (%)) of 96.2%.

With `O=S(=O)(CCC(F)=C(F)F)c1ncc(Cl)s1` [Fluensulfone, fluensulfone] the Control value ([1]; 200 g/ha) was 73.3, the “Average root knot index” value ([2]; 2500 g/ha) was 25.7 and the “Mobility inhibition rate (%)” value ([3]; 0.31 ppm) was 36.4%. The “Mobility inhibition rate (%)” value ([3]; 0.63 ppm) was 41.7%, the “Mobility inhibition rate (%)” value ([3]; 1.25 ppm) was 48.1% and the “Mobility inhibition rate (%)” value ([3]; 2.5 ppm) was 54.7%. For the same molecule, the “Mobility inhibition rate (%)” value ([3]; 5 ppm) was 69.1%.
